Consider four molecules from patent US11566233B2, “Three-dimensional in vitro lung model, process for preparing said model, and its use for determining and /or predicting the sensitizing effects of inhalable products” (LUXEMBOURG INSTITUTE OF SCIENCE AND TECHNOLOGY, priority 2016, dated 2023).

Data set [1] deals with THP-1 cells in the tetraculture lung model. Briefly: Flow cytometry of cell surface marker expression on THP-1 cells in the tetraculture lung model. The note with it: 24 h exposure, compared to control. The format is cell-based, human. The method, then: 24 h and 48 h after exposure to the Vitrocell Cloud, THP-1 DC were recovered in the medium in the well. After centrifugation for 5 minutes at 300 g, cells were washed with PBS and staining was performed using antibodies listed in table 1 below (following the manufacturer's recommended dilutions) and the corresponding isotype control to determine the unspecific binding of the antibody and ensure the observed staining is due to specific binding rather than an artifact.
Relative Fluorescence Intensity (RFI) was used as an indicator of OX40L, IL7ra, CD40 and CD86 and CD54 expression and was calculated by the following formula I: […]
(§1) To measure the expression of cell surface markers and the release of different cytokines, the cells of inserts prepared according to example 1 above were exposed to the CV75 or, when it was not possible to reach 75% of viability, cells were exposed to the maximum of solubility of the compounds.
(§2) After 24 h and 48 h, THP-1 cells were recovered, stained and analysed using a flow cytometer according to the protocol detailed in example 2 above. Supernatants were recovered for cytokines measurements.

For data set [2], the system named is tetraculture in vitro lung model. The data set is described as follows: Cytokines released in the tetraculture in vitro lung model. The format is cell-based, human. Further details: key: ?: indicates a decrease of cytokine release compared to the vehicle control; ?: indicates an increase of cytokine release compared to the vehicle control; =: indicates no change observed between exposure and the vehicle control; ?: indicates a decrease of cytokine release compared to the vehicle control; ?: indicates an increase of cytokine release compared to the vehicle control. The method, then:
as §1, §2
Table 2 below gives a summary of the results obtained for all cytokines measured, wherein, ? indicates a decrease of cytokine release compared to the vehicle control, ? indicates an increase of cytokine release compared to the vehicle control and =indicates no change observed between exposure and the vehicle control: […]

The subject of data set [3] is THP-1 cells in monoculture. The data set is described as follows: Viability of THP-1 cells in monoculture in submerged conditions. The note with it: 24 h exposure, up to maximum of solubility in medium containing 0.2% of DMSO. It counts as cell-based, human. The protocol: (§3) FIGS. 11A and 11B are diagrams showing viability of THP-1 cells after 24 h exposure to PA (FIG. 11A) and TMA (FIG. 11B) in monoculture in submerged conditions. In this figure, the highest tested concentrations represent the maximum of solubility of the compounds in medium containing 0.2% of DMSO.

The nature of data set [4]: Solubility in medium containing 0.2% of DMSO. It counts as physicochemical. The protocol: as §3
Data set [5] deals with tetraculture lung model (A549, EA.hy926, THP-1, Mϕ-THP-1). Briefly: Alamar Blue viability of the tetraculture lung model after Vitrocell Cloud exposure at the air-liquid interface. The following applies: 24 h and 48 h after exposure. Background: The colour change of resazurin is a common sign of viable cells or microbes.
Method: (§4) Example of exposure of the inserts is performed in a Vitrocell® Cloud device (Waldkirch, Germany), previously cleaned under sterile conditions, and maintained at 37° C. The inserts are placed into the device. A cloud, from 200 to 500 μL of the product to be tested) is then distributed homogenously inside the chamber and starts to settle on the surface. After about 10 to 30 minutes (depending on the injected product), the cloud is settled by single droplet sedimentation. The concentration which is deposited on the insert can be calculated in g/cm^2.
(§5) Inserts prepared according to example 1 were exposed to chemical compounds and to positive controls using the Vitrocell® Cloud system (Vitrocell, Waldkirch, Germany). All compounds were diluted in a 1/1(v/v) solution of sterile saline solution and PBS.
(§6) Inserts were exposed to a range of concentrations to chemical respiratory irritants and sensitizers in order to determine first the viability of the tissue using the Alamar Blue assay. […] Upon entering cells, resazurin is reduced to pink highly fluorescent resorufin. Viable cells continuously convert resazurin to resorufin. The fluorescence is proportional to cell viability.
(§7) Following 24 h and 48 h exposure to the compounds through the Vitrocell cloud, cells were incubated for 1 hour to 400 μM of Alamar Blue diluted in Coculture 1% medium.
(§8) Viability was assessed using the Alamar Blue assay 24 h and 48 h after exposure according to the protocol detailed in example 2 above.
(§9) The concentration leading to 25% of cytotoxicity (meaning 75% of viability: CV75) relatively compared to the vehicle control was determined using the graphs presented in example 2.
The subject of data set [6] is THP-1 cells in monoculture. Briefly: Cell surface marker expression on THP-1 cells in monoculture, submerged conditions (h-CLAT reproduction). The following applies: 24 h exposure. The format is cell-based, human. The source says:
In parallel, THP-1 cells were exposed in submerged conditions in monoculture in order to reproduce the data obtained using the h-CLAT (human cell line activation test) assay. The h-CLAT assay is based on the property of chemicals to activate dendritic cells, property which is common to both skin and respiratory sensitizers. The h-CLAT is an in vitro model validated at the European level (ECVAM validation).
On a comparative purpose, the expression of CD86 and CD54 cell surface markers were also evaluated in the h-CLAT. It is currently recommended to use the h-CLAT to assess the skin sensitizing potential of chemicals. As skin and lung share the DC activation property, h-CLAT may be considered to be used to assess also the respiratory sensitizing potential of chemicals. To remind, there is no validated models to assess respiratory sensitization available on the market yet.
As different antibodies, fluorochromes and equipment were used to measure the CDs expression, threshold level obtained in literature on the h-CLAT could not be compared to those measured in this example.

Data set [7] has as its system tetraculture lung model (A549, EA.hy926, THP-1, Mϕ-THP-1).
Method: as §4, §5, §6, §7, §8, §9

Where two headings read alike, the source gives them in different places.

Consider `O=C1OC(=O)c2ccccc21` [PA, Phthalic Anhydrid], for which, in data set [1], the “expression of cell surface marker CD54 on THP-1 cells” value was “Increases” and the “expression of cell surface marker CD86 on THP-1 cells” value was “Increases”. Moreover, in data set [2] (24 h), the “IL-7 release compared to the vehicle control” value was “=” and the “MCP-1 release compared to the vehicle control” value is on record as “=”. Moreover, the “IL-7 release compared to the vehicle control” value in data set [2] (48 h) is “=”. The “cytotoxicity of THP-1 cells” value in data set [3] is listed as “not possible to reach any cytotoxity”. In addition, the solubility entry in data set [4] was “low solubility”. Moreover, the “cell viability of the alveolar tissue model (in words)” value (“cell viability” below) in data set [5] is reported as “decrease in viability”.

On to `O=C(O)c1ccc2c(c1)C(=O)OC2=O` [TMA, Trimellitic Anhydride], for which, in data set [1], the “expression of cell surface marker CD54 on THP-1 cells” value is listed as “Increases” and the “expression of cell surface marker CD86 on THP-1 cells” value is recorded as “Increases”. In addition, in data set [6], the “expression of CD86 on THP-1 cells” value is “lower than the vehicle control”. Besides, in data set [2] (24 h), the “IL-7 release compared to the vehicle control” value is “=” and the “MCP-1 release compared to the vehicle control” value is on record as “=”. Moreover, in data set [2] (48 h), the “IL-7 release compared to the vehicle control” value is reported as “=”, the “IL-10 release compared to the vehicle control” value is listed as “=” and the “MCP-1 release compared to the vehicle control” value is given as “=”. In addition, the “cytotoxicity of THP-1 cells” value in data set [3] was “not possible to reach any cytotoxity”. Also, in data set [4], the solubility entry was “low solubility”. Moreover, in data set [5], the “cell viability” value is recorded as “decrease in viability”.

With `C=CC=O` [Acrolein], in data set [1], the “expression of cell surface marker CD54 on THP-1 cells” value is recorded as “no increase”, the “expression of cell surface marker CD86 on THP-1 cells” value is on record as “no increase” and the “expression of cell surface marker IL7ra on THP-1 cells” value was “decrease”. For the same molecule, the “expression of CD54 on THP-1 cells” value in data set [6] is recorded as “increase”. The “RANTES release compared to the vehicle control” value in data set [2] (24 h) was “=”. The “MCP-1 release compared to the vehicle control” value in data set [2] (48 h) is “=”.

B1: Bet v1: additional known protein sensitizer; important protein allergen of pollen (protein, UniProt P15494 2-160, looked up)
Major pollen allergen Bet v …: GVFNYETETTSVIPAARLFKAFILDGDNLFPKVAPQAISSVENIEGNGGPGTIKKISFPEGFPFKYVKDRVDEVDHTNFKYNYSVIEGGPIGDTLEKISNEIKIVATPDGGSILKISNKYHTKGDHEVKAEQVKASKEMGETLLRAVESYLLAHSDAYN
Consider B1, for which, in data set [7], the “cell viability” value is listed as “No effect”.
